{
  "source": "patent US10010080B2",
  "about": "“Process for the production of partially polymerized antimicrobial silanol quaternary ammonium compounds” (Indusco, Ltd., priority 2015, dated 2018)",
  "origin": "cited, not measured here",
  "conditions": "Dow Corning material safety data sheet",
  "data": [
    {"smiles": "CO[Si](CCCCl)(OC)OC", "note": "[CPTMS, chloropropyptrimethoxy silane]", "values": [
      {"measurement": "time weighted average (TWA) for human exposure", "value": 0.1, "unit": "part per million"}
    ]}
  ]
}
